Data taken from patent US8076358B2, “6-substituted-thio-2-amino-quinoline derivatives useful as inhibitors of β-secretase (BACE)” (Janssen Pharmaceutica NV, priority 2008, dated 2011).

Biological target: human BACE-1 (Homo sapiens, UniProt P56817)
Assay: In Vitro BACE Assay (CEREP, fluorogenic substrate)
Type: biochemical
Details: recombinant enzyme; for inhibition at 10 µM: 10 μM test compound, pH 4.5; for IC50: pH 4.5, 60 min at 37° C.
Method: This assay was run by CEREP (Catalog Ref. 761-B, Referred to SOP No. 1C131; ERMOLIEFF, J., LOY, J. A., KOELSCH, G. and TANG, J., Proteolytic activation of recombinant pro-memapsin 2 (pro-BACE) studied with new fluorogenic substrates, Biochemistry, (2000) Vol. 39, p. 12450).
More specifically the assay, run at 50 μL in a 96 well plate, evaluated the effect of test compound on the activity of the human BACE-1 quantified by measuring the formation of Mca-S-E-V-N-L-NH2 from Mca-S-E-V-N-L-D-A-E-F-R-K(Dnp)-R-R—NH2, using a recombinant enzyme.
The test compound, reference compound or water (control) was added to a buffer containing 0.09 M sodium acetate (pH 4.5) and 0.25 μg BACE-1. Compound interference with the fluorimetric detection method due to autofluorescence was then checked by measurements at the wavelengths defined to evaluate the enzyme activity. Thereafter, the reaction was initiated by adding 7.5 μM of the substrate Mca-S-E-V-N-L-D-A-E-F-R-K(Dnp)-R—R—NH2 and the mixture was incubated for 60 min at 37° C. For control basal measurement, the substrate was omitted from the reaction mixture. Immediately after the incubation, the fluorescence intensity emitted by the reaction product Mca-S-E-V-N-L-NH2 was measured at λex=320 nm and λem=405 nm using a microplate reader (Ultra, Tecan). The standard inhibitory reference compound was OM99-2, which was tested in each experiment at several concentrations to obtain an inhibition curve from which its IC50 value was calculated.

Sequence of human BACE-1 (P56817 46-501): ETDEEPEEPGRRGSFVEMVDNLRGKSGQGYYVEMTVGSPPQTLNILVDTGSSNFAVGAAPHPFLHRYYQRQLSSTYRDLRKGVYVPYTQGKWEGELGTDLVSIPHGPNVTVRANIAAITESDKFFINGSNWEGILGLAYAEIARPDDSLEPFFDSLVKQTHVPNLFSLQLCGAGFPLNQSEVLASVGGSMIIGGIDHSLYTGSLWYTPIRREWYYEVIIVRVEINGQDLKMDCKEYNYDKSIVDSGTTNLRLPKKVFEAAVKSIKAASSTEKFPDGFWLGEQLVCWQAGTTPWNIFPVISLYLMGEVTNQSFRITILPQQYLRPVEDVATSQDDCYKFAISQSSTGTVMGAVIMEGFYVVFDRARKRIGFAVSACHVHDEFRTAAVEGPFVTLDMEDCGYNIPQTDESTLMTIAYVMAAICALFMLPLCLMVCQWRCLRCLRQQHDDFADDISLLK

## Nc1nc2ccc(Sc3cccc(CNCc4ccc(Cl)cc4Cl)c3)cc2cc1CC1CCOCC1 [Compound 9]
  inhibition at 10 µM: 98%
  IC50: 240 nM

## Cc1ccc(C)c(COCc2cccc(Sc3ccc4nc(N)c(CC5CCOCC5)cc4c3)c2)c1 [Compound 16]
  inhibition at 10 µM: 93%
  IC50: 1200 nM

## Nc1nc2ccc(Sc3cccc(CNCc4ccc(C(F)(F)F)cc4)c3)cc2cc1CC1CCOCC1 [Compound 12]
  inhibition at 10 µM: 90%
  IC50: 460 nM

## Cc1cc(C)c(CNCc2cccc(Oc3ccc4nc(N)c(CCC5CCOCC5)cc4c3)c2)c(C)c1 [Compound (II-b), 3-[2-(Tetrahydro-pyran-4-yl)-ethyl]-6-{3-[(2,4,6-trimethylbenzylamino)-methyl]-phenoxy}-quinolin-2-ylamine]
  inhibition at 10 µM: 74%
  IC50: > 10000 nM

## Nc1nc2ccc(Sc3cccc(CNCc4ccccn4)c3)cc2cc1CC1CCOCC1 [Compound 5]
  inhibition at 10 µM: 93%
  IC50: 800 nM

## Nc1nc2ccc(Sc3cccc(CNCc4cc(F)ccc4F)c3)cc2cc1CC1CCOCC1 [Compound 8]
  inhibition at 10 µM: 95%
  IC50: 210 nM

## Nc1nc2ccc(Sc3cccc(CSc4cccc(CC(=O)O)c4)c3)cc2cc1CC1CCOCC1 [Compound 17]
  inhibition at 10 µM: 94%
  IC50: 330 nM

## Cc1ccc(CNCc2cccc(Sc3ccc4nc(N)c(CC5CCOCC5)cc4c3)c2)c(C)c1 [Compound 6]
  inhibition at 10 µM: 98%
  IC50: 450 nM

## Cc1cc(C)c(CNCc2cccc(Oc3ccc4nc(N)c(CC5CCOCC5)cc4c3)c2)c(C)c1 [Compound (II-a), 3-(Tetrahydro-pyran-4-ylmethyl)-6-{3-[(2,4,6-trimethylbenzylamino)-methyl]-phenoxy}-quinolin-2-ylamine]
  inhibition at 10 µM: 98%
  IC50: 1200 nM

## CCOc1ccccc1CNCCc1cccc(Sc2ccc3nc(N)c(CC4CCOCC4)cc3c2)c1 [Compound 20]
  inhibition at 10 µM: 98%
  IC50: 140 nM

## Cc1cc(C)c(CNCc2cccc(Sc3ccc4nc(N)c(CC5CCOCC5)cc4c3)c2)c(C)c1 [Compound 1, 3-(Tetrahydro-pyran-4-ylmethyl)-6-{3-[(2,4,6-trimethyl-benzylamino)-methyl]-phenylsulfanyl}-quinolin-2-ylamine]
  inhibition at 10 µM: 96%
  IC50: 260 nM

## Nc1nc2ccc(Sc3cccc(CCNCc4ccccn4)c3)cc2cc1CC1CCOCC1 [Compound 21]
  inhibition at 10 µM: 91%
  IC50: 630 nM

## CCCC(NCc1cccc(Sc2ccc3nc(N)c(CC4CCOCC4)cc3c2)c1)C(=O)O (stereo not drawn) [Compound 13]
  inhibition at 10 µM: 63%
  IC50: 2800 nM

## Nc1nc2ccc(Sc3cccc(CNCc4c(F)cccc4F)c3)cc2cc1CC1CCOCC1 [Compound 4]
  inhibition at 10 µM: 97%
  IC50: 400 nM

## Cc1cc(C)c(NCc2cccc(Sc3ccc4nc(N)c(CC5CCOCC5)cc4c3)c2)c(C)c1 [Compound 2]
  inhibition at 10 µM: 94%
  IC50: 920 nM

## CCOc1ccccc1CNCc1cccc(Sc2cc3cc(CC4CCOCC4)c(N)nc3cc2F)c1 [Compound 18, 6-{3-[(2-Ethoxy-benzylamino)-methyl]-phenylsulfanyl}-7-fluoro-3-(tetrahydro-pyran-4-ylmethyl)-quinolin-2-ylamine]
  inhibition at 10 µM: 95%
  IC50: 260 nM

## COc1ccc(CNCc2cccc(Sc3ccc4nc(N)c(CC5CCOCC5)cc4c3)c2)c(OC)c1 [Compound 7]
  inhibition at 10 µM: 90%
  IC50: 380 nM

## CCOc1ccccc1CNCc1cccc(Sc2ccc3nc(N)c(CC4CCOCC4)cc3c2)c1 [Compound 10]
  inhibition at 10 µM: 95%
  IC50: 300 nM
